Measured values published in US7732412B2, “Methods of treatment using novel LHRH antagonists having improved solubility properties” (Zentaris GmbH, priority 1999, dated 2010).
Numbered stars: 1 amine (or outer) side, 2 acyl side, 3 side chain; on linkers, the order of the positions; unused ones are H or OH. Square brackets hold non-standard residues; d marks the D form. Side chains are listed from the residue outwards. Peptide text beside a SMILES is read from it. * marks the point of attachment. NH(4-amidinophenyl) = N=C(N)c1ccc(N*)cc1; dPhe(4-Cl) = N[C@H](Cc1ccc(Cl)cc1)C(=O)O; d2Nal = N[C@H](Cc1ccc2ccccc2c1)C(=O)O; d(hCit) = NC(=O)NCCCC[C@@H](N)C(=O)O; Lys(iPr) = CC(C)NCCCC[C@H](N)C(=O)O; NMeY = CN[C@@H](Cc1ccc(O)cc1)C(=O)O; d3Pal = N[C@H](Cc1cccnc1)C(=O)O; Suc = O=C(CCC(=O)[*:2])[*:1]; Nle = CCCC[C@H](N)C(=O)O

Key:
human LHRH receptor [1] = molecular target: T1, human LHRH receptor (Homo sapiens, UniProt P30968); test: functional assay for antagonistic activity, fos-Luc luciferase reporter gene, stimulation with 1 nM [D-Trp6] LHRH; assay type: cell-based; parameters: expressed in transfected cells; details: cells stimulated with 1 nM [D-Trp6] LHRH for 6 h; bracket = number of independent experiments
T1 sequence (P30968 1-328): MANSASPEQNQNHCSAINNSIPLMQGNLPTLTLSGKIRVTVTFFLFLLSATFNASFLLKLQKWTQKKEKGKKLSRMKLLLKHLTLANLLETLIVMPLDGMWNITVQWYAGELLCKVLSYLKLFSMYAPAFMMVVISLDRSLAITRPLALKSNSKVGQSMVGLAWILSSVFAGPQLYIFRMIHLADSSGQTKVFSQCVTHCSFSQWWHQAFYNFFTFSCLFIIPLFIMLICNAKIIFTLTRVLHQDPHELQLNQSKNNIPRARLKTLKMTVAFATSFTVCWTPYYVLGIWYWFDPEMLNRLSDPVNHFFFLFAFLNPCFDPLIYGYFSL
Description: The assay for the functional characterization of antagonistic analogs of LH-RH was carried out, with some modifications, as described in Beckers et al., “Characterization of gonadotropin-releasing hormone analogs based on a sensitive cellular luciferase reporter gene assay” (1997) Analyt. Biochem. 251, 17-23. The assay uses a reporter gene made by fusing the c-fos immediate-early gene promoter to a DNA sequence encoding luciferase (Luc). A recombinant cell line that expresses the human LH-RH. receptor is stably transfected with the fos-Luc reporter gene. Transcription of the fos-Luc fusion gene and synthesis of the Luc protein is induced in the cells in a dose-dependent manner by LH-RH and other LH-RH agonists that bind and signal through the human LH-RH receptor. Peptide LH-RH antagonists such as the compounds of the invention bind to cellular LH-RH receptors and inhibit this stimulation. The antagonistic potency (IC50) of peptide LH-RH antagonists as determined by the assay generally correlates well with the binding affinity (KD) of the LH-RH antagonists for LH-RH receptor as determined from ligand binding experiments.
Cells containing the fos-Luc reporter gene that express the human LH-RH receptor were cultured for 24 h in microtitre plates using DMEM with additives and 1% (v:v) FCS (10,000 cells per well). The cells were then stimulated with 1 nM [D-Trp^6] LHRH for 6 h. Peptide LH-RH antagonist compounds according to the invention were added before the stimulation, and the cells were lysed at the end for quantification of the cellular Luc activity. The calculation of the IC50 values from dose-effect curves was carried out by non-linear regression analysis using the Hill model (Programme EDX 2.0 from C. Grunwald, Arzneimittelwerk Dresden).
The quantification of the Luc activity was carried out in duplicate essentially as described (Promega Technical Bulletins #101/161) using the respective luciferase assay system (Promega E4030). Owing to addition of coenzyme A (CoA), an oxidation of luciferyl-CoA takes place with advantageous kinetics. After the removal of the culture medium from the microtitre plate, the cells were lysed by addition of 100 μl of lysis buffer (25 mM tris-phosphate pH 7.8, 2 mM dithiothreitol, 2 mM 1,2-diaminocyclohexane-N,N,N′,N′-tetraacetic acid (CDTA), 10% (v:v) glycerol, 1% (v:v) Triton X-100). After incubation at room temperature for 15 min, 10 μl of cell lysate were transferred into a white microtitre plate suitable for luminometric detection (Dynatech). The enzymatic reaction was initiated by addition of 50 μl of assay buffer (20 mM tricine pH 7.8, 1.07 mM (MgCO3)4Mg(OH)2, 2.67 mM MgSO4, 0.1 mM ethylene-diaminetetraacetic acid (EDTA), 33.3 mM dithiothreitol, 270 μM coenzyme A, 470 μM glow-worm (Photinus pyralis) luciferin, 530 μM rATPNa2). After one minute, the luminescence was determined for a total time of one second with a signal half-life of five minutes using the EG&G Berthold MicroLumat LB 96 P.

[2] = system: patients who suffer from prostate carcinoma; test: first clinical trial in prostate carcinoma, 14 patients, testosterone and PSA; assay type: in vivo, human
Description: (§1) The following data are derived from two clinical studies comprising 14 and 13 patients, respectively, who suffer from prostate carcinoma and who were treated with the compound of the invention having the formula: Ac-D-Nal(2)^1-D-Cpa^2-D-Pal(3)^3-Ser^4-N-Me-Tyr^5-D-Hci^6-Nle^7-Arg^8-Pro^9-D-Ala^10-NH2 (Ozarelix)
In the first clinical trial, patients were given i.m. injections of 65 mg Ozarelix on day 1 followed by another 65 mg i.m. injection on day 2. Patients were re-treated after a waiting period of 4 weeks. This 4 week period of treatment is referred to as a treatment “cycle”. Accordingly, dosage of 130 mg of Ozarelix was provided to the patients in the first four week cycle of treatment (Cycle 1).
Six out of these 14 patients were subsequently administered 65 mg Ozarelix per i.m. injection on day 29 and day 30 each, whereas the other eight patients only received 65 mg Ozarelix on day 29 (Cycle 2). This schedule was repeated on day 57/58 accordingly (Cycle 3).
As for the administration days, testosterone levels were always determined before application of ozarelix to the patients. In addition, mean change of Prostate Specific Antigen (PSA) levels were monitored 4-weekly over a period of 12 weeks. The percent change of PSA shown is the mean value for all treated patients and refers to the normalized individual baseline PSA levels before first Ozarelix administration.

[3] = system: patients who suffer from prostate carcinoma; test: second clinical trial in prostate carcinoma, 13 patients, testosterone; assay type: in vivo, human
Description: as §1
In the second clinical trial patients were given a single im. injection of 130 mg Ozarelix on day 1. Patients were re-treated after a waiting period of 4 weeks, and this 4 week period is considered as a treatment “Cycle”. Accordingly, dosage of 130 mg of Ozarelix was again provided to the patients in the first four week cycle of treatment (Cycle 1).
Seven out of these 13 patients were subsequently administered 130 mg Ozarelix per i.m. injection on day 29, whereas the other six patients received 100 mg Ozarelix on day 29 (Cycle 2). This schedule was repeated on day 57 accordingly (Cycle 3).
As for the administration days, testosterone levels were always determined before application of Ozarelix to the patients.

human LHRH receptor [4] = molecular target: T1, human LHRH receptor; test: receptor binding assay, displacement of [125I]-cetrorelix on intact cells; parameters: expressed in transfected cells; host or cells: LTK cells (stably transfected), intact cells; details: LTK cells expressing human LHRH receptor, 1 h at 37° C.; bracket = number of independent experiments; read-out: KD (binding affinity)
Source text: The compounds according to formula I of the invention were investigated for their receptor binding. The assay method closely followed the process described in Beckers et al., “Selection and characterization of mammalian cell lines with stable overexpression of human pituitary receptors for gonadoliberin (GnRH)” (1995) Eur. J. Biochem., 231, 535-543. Cetrorelix obtained according to the synthesis disclosed above was iodinated with [^125I] (Amersham; specific activity 80.5 Bq/fmol) using the IodoGen reagent (Pierce). The reaction mixture was purified by reverse-phase high-performance liquid chromatography with exchanged phases, monoiodinated cetrorelix being obtained without unlabelled peptide. In each case, about 80% of the [^125I]-cetrorelix was capable of specific receptor association.
The receptor binding assay was carried out under physiological conditions as described (Beckers et al., 1995) using intact cells. Subconfluent cultures of stably transfected LTK cells, which express the human LHRH receptor, were separated off by incubation in NaCl/Pi (137 mM NaCl, 2.7 mM KCl, 8.1 mM Na2HPO4, […])/1 mM EDTA and collected by centrifugation. The cell pellet was resuspended in binding buffer (DMEM without H2CO3, with 4.5 g/l of glucose, 10 mM Hepes pH 7.5, 0.5% (mass/volume) BSA, 1 g/l bacitracin, 0.1 g/l SBTI, 0.1% (mass/volume) NaN3). For displacement assays, 0.25×10^6 cells/100 μl were incubated with approximately 225 pM of the [^125I]-cetrorelix (specific activity 5-10×10^5 dpm/pmol) and various concentrations of unlabelled compound according to the invention as competitor. The cell suspension in 100 μl of binding medium was layered in 400 μl assay tubes over 200 μl of 84% by volume silicone oil (Merck Type 550)/16% by volume paraffin oil. […] Cell pellet and supernatants were then analysed by counting the y radiation. The amount of non-specifically bound material was determined at a final concentration of 1 μM with inclusion of unlabelled cetrorelix and was typically ≦10% of the total bound material. […]

SMILES: CCCC[C@H](NC(=O)[C@@H](CCCCNC(N)=O)NC(=O)[C@H](Cc1ccc(O)cc1)N(C)C(=O)[C@H](CO)NC(=O)[C@@H](Cc1cccnc1)NC(=O)[C@@H](Cc1ccc(Cl)cc1)NC(=O)[C@@H](Cc1ccc2ccccc2c1)NC(C)=O)C(=O)N[C@@H](CCCNC(=N)N)C(=O)N1CCC[C@H]1C(=O)N[C@H](C)C(N)=O [Example 1, Ac-D-Nal(2)^1-D-Cpa^2-D-Pal(3)^3-Ser^4-N-Me-Tyr^5-D-Hci^6-Nle^7-Arg^8-Pro^9-D-Ala^10-NH2] (Ac-[d2Nal][dPhe(4-Cl)][d3Pal]S[NMeY][d(hCit)][Nle]RP[dA]-NH2)
- IC50 (human LHRH receptor [1]): 0.242 nM
- PSA levels over the monitoring period ([2]; 12 weeks, first trial): significantly reduced
- Testosterone (mean) ([2]; Day 2, 65 mg i.m. on day 1 and 2, re-treated day 29(/30) and 57(/58), pre-dose day 1 4.4 ng/mL): 0.6 ng/mL
- Testosterone (mean) ([2]; Day 3, first trial, 65 mg i.m. on day 1 and 2): 0.3 ng/mL
- Testosterone (mean) ([2]; Day 8, first trial): 0.2 ng/mL
- Testosterone (mean) ([2]; Day 15, first trial): 0.1 ng/mL
- Testosterone (mean) ([2]; Day 22, first trial): 0.1 ng/mL
- Testosterone (mean) ([2]; Day 29, before application, first trial): 0.2 ng/mL
- PSA [% change] (mean, versus individual baseline) ([2]; Day 29, first trial): −77 % change
- Testosterone (mean) ([2]; Day 36, first trial): 0.1 ng/mL
- Testosterone (mean) ([2]; Day 43, first trial): 0.1 ng/mL
- Testosterone (mean) ([2]; Day 50, first trial): 0.1 ng/mL
- Testosterone (mean) ([2]; Day 57, before application, first trial): 0.1 ng/mL
- PSA [% change] (mean, versus individual baseline) ([2]; Day 57, first trial): −88 % change
- Testosterone (mean) ([2]; Day 64, first trial): 0.1 ng/mL
- Testosterone (mean) ([2]; Day 71, first trial): 0.1 ng/mL
- Testosterone (mean) ([2]; Day 78, first trial): 0.1 ng/mL
- PSA [% change] (mean, versus individual baseline) ([2]; Day 85, first trial): −89 % change
- Testosterone (mean) ([2]; Day 85, first trial): 0.3 ng/mL
- testosterone values of all patients ([2]; afterwards (after day 3), first trial): < 0.5 ng/mL
- treated patients hormonally castrated (testosterone <0.5 ng/mL) ([2]; day 2 (24 hours post-dose), first trial): 57%
- treated patients hormonally castrated (testosterone <0.5 ng/mL) ([2]; day 3 (48 hours post-dose), first trial): 79%
- Testosterone (mean) ([3]; Day 2, single 130 mg i.m. on day 1, re-treated day 29 and 57 (130 or 100 mg), pre-dose day 1 3.9 ng/mL): 0.4 ng/mL
- Testosterone (mean) ([3]; Day 3, second trial, 130 mg i.m. on day 1): 0.3 ng/mL
- Testosterone (mean) ([3]; Day 8, second trial): 0.1 ng/mL
- Testosterone (mean) ([3]; Day 15, second trial): 0.1 ng/mL
- Testosterone (mean) ([3]; Day 22, second trial): 0.1 ng/mL
- Testosterone (mean) ([3]; Day 29, before application, second trial): 0.2 ng/mL
- Testosterone (mean) ([3]; Day 36, second trial): 0.1 ng/mL
- Testosterone (mean) ([3]; Day 43, second trial): 0.1 ng/mL
- Testosterone (mean) ([3]; Day 50, second trial): 0.1 ng/mL
- Testosterone (mean) ([3]; Day 57, before application, second trial): 0.2 ng/mL
- Testosterone (mean) ([3]; Day 64, second trial): 0.1 ng/mL
- Testosterone (mean) ([3]; Day 71, second trial): 0.1 ng/mL
- Testosterone (mean) ([3]; Day 78, second trial): 0.1 ng/mL
- Testosterone (mean) ([3]; Day 85, second trial): 0.3 ng/mL
- testosterone values of all patients ([3]; afterwards (after day 3), second trial): < 0.5 ng/mL
- treated patients hormonally castrated (testosterone <0.5 ng/mL) ([3]; day 2 (24 hours post-dose), second trial): 69%
- treated patients hormonally castrated (testosterone <0.5 ng/mL) ([3]; day 3 (48 hours post-dose), second trial): 100%

SMILES: CC(=O)N[C@H](Cc1ccc2ccccc2c1)C(=O)N[C@H](Cc1ccc(Cl)cc1)C(=O)N[C@H](Cc1cccnc1)C(=O)N[C@@H](CO)C(=O)N(C)[C@@H](Cc1ccc(O)cc1)C(=O)N[C@H](CCCCNC(=O)CCC(=O)Nc1ccc(C(=N)N)cc1)C(=O)N[C@@H](CC(C)C)C(=O)N[C@@H](CCCCNC(C)C)C(=O)N1CCC[C@H]1C(=O)N[C@H](C)C(N)=O [Example 2, Ac-D-Nal(2)^1-D-Cpa^2-D-Pal(3)^3-Ser^4-N-Me-Tyr^5-D-Lys(B)^6-Leu^7-Lys(iPr)^8-Pro^9-D-Ala^10-NH2] (Ac-[d2Nal][dPhe(4-Cl)][d3Pal]S[NMeY][dK]([Suc-NH(4-amidinophenyl)])L[Lys(iPr)]P[dA]-NH2)
- IC50 (human LHRH receptor [1]): 0.684 nM
- Kd (human LHRH receptor [4]): 0.181 nM
